According to patent EP4799637A1, “NASAL ADMINISTRATION COMPOSITION CONTAINING GLP-1 RECEPTOR AGONIST, AND PREPARATION METHOD THEREFOR AND USE THEREOF” (Zhongshan Wanhan Pharmaceutical Co., Ltd., priority 2023, dated 2025):

How the values were obtained:
[1] = parallel artificial membrane permeability assay (PAMPA) of semaglutide formulations with permeation promoters; assay type: in vitro ADME; conditions: Skin PAMPA, permeation promoters at the same concentration of 0.25% (w/v%)
Procedure: 1.1. Test objective: to investigate the differences in in-vitro permeability of semaglutide having a concentration of 10 mM in pH7.4 […] buffer by using the PAMPA method after the addition of different types and proportions of permeation promoters. An appropriate amount of 10 mM semaglutide mother liquor was weighed and placed in a liquid phase injection vial, and different permeation promoters were weighed and added correspondingly according to types and proportions listed in Table 1; a magnetic stirrer was added; the magnetic stirrer was turned on to adjust a rotation speed to 650 rpm; and the temperature of the magnetic stirrer was kept at 37°C, followed by stirring for later use. Table 1 • Donor wells solutions were solutions of Formulations 1-20; • An acceptor wells solution was pH 7.4 Prisma HT buffer. • 1) PAMPA membrane hydration: a Hydration Solution (Pion) was prepared (used at room temperature); donor wells of a PAMPA plate were carefully removed; 200 μl of Hydration Solution was added to each well, and whether each empty surface forms a curved surface due to surface tension was observed; and acceptor wells of the PAMPA plate were covered carefully, while air bubbles were avoided on contact surfaces. The Hydration Solution was kept moist and hydrated overnight, and the hydrated membrane will appear translucent or have white spots. […]

[2] = Compatibility/stability study: HPLC main peak purity and impurities after storage in the dark at 40°C and 50°C; assay type: physicochemical; conditions: result in words
Procedure: The changes in semaglutide content and impurities in a semaglutide solution, semaglutide+different permeation promoter solutions, and semaglutide+different bacteriostatic agent solutions were determined under HPLC conditions in Example 1 after being stored in the dark for 10 days (10 D) at 40°C and 50°C, and the results were shown in Table 7.
The definitions of the hydrophilic impurities 1 and 2 and the hydrophobic impurity in Table 7 were shown in HPLC chromatograms of Formulations C1 to C4 shown in FIGS. 1-4 determined at 50°C on Day 10.
As a control, main peak intensities of compositions J and K in CN116942612A at 50°C on Day 5 were determined using the same method, both of which were below 95%.

permeation promoting effect [1]	protective effect on semaglutide (inhibited degradation) [2]	Compound
better permeation promoting effects	–	CCCCCCCCCCCCO[C@@H]1O[C@H](CO)[C@@H](O[C@H]2O[C@H](CO)[C@@H](O)[C@H](O)[C@H]2O)[C@H](O)[C@H]1O [dodecyl-β-D-maltoside]
better permeation promoting effects	–	CCCCCCCCCCCC(=O)OCCOCCOCCOCCOCCOCCOCCOCCOCCOCCOCCOCCOCCOCCOCCOCCOCCOCCOCCOCCOCC(OCCOCCOCCOCCOCCOCCOCCOCCOCCOCCOCCOCCOCCOCCOCCOCCOCCOCCOCCOCCO)C1OCC(OCCOCCOCCOCCOCCOCCOCCOCCOCCOCCOCCOCCOCCOCCOCCOCCOCCOCCOCCOCCO)C1OCCOCCOCCOCCOCCOCCOCCOCCOCCOCCOCCOCCOCCOCCOCCOCCOCCOCCOCCOCCO (stereo not shown) [polysorbate-20]
–	protective effect on semaglutide	benzalkonium chloride
better permeation promoting effects	–	polyoxyethylene (8) dodecyl ether
